According to the NIST ThermoML archive (doi:10.1016/j.jct.2016.01.003):
Numbers after ± are expanded uncertainties.

How the values were obtained:
[1] = Crystal
[2] = Molar enthalpy of transition or fusion; conditions: Crystal; DSC

For O=C1c2cccc(Cl)c2C(=O)N1c1ccccc1 [3-chloro-N-phenylphthalimide], the mass density ([1]; 298.15 K, 101.33 kPa, flotation method) was 1397 ± 2 kg/m3, the Normal melting temperature ([1]; DTA) was 192.90 ± 1.1 °C and the “Molar enthalpy of transition or fusion” value [2] was 6.96 ± 0.237 kcal/mol.
